Data set [1] in a line: Tmax in ICR mouse at 50 mg/kg, po by HPLC analysis. The data set is classed as ADME, organism-based. Conditions: in vivo.
Data set [2] can be described thus: Cytotoxicity against African green monkey Vero cells assessed as cell viability after 72 hrs by MTT assay. Type of data set: cell-based. Conditions: chlorocebus sabaeus. For orientation: Formazan colour is commonly taken as a measure of viable cells.
A short description of data set [3]: Elimination half life in ICR mouse at 50 mg/kg, po by HPLC analysis. Conditions: in vivo, read-out: beta t1/2 (converted). The data set is classed as ADME, organism-based.
Data set [4] can be described thus: Cmax in ICR mouse at 50 mg/kg, po by HPLC analysis. Conditions: in vivo. The data set is classed as ADME, organism-based. More on the design: dose 50 mg/kg, route oral.
A short description of data set [5]: Aqueous solubility of the compound at pH 2 after 12 hrs by HPLC-UV method. Type of data set: physicochemical.
The nature of data set [6]: MRT in ICR mouse at 50 mg/kg, po by HPLC analysis. Conditions: in vivo. Type of data set: ADME, organism-based.
Data set [7] is described as follows: AUC (0 to infinity) in ICR mouse at 50 mg/kg, po by HPLC analysis. Details: dose 50 mg/kg, time infinity, route oral. The data set is classed as ADME, organism-based. Conditions: in vivo.
The subject of data set [8] is Mycobacterium tuberculosis. In words: Antitubercular activity against Mycobacterium tuberculosis H37Rv after 7 days by microplate alamar blue assay. Type of data set: functional. Conditions: 168 h. A general note: The colour change of resazurin is a common sign of viable cells or microbes.
In a further data set the test system is Mus musculus. In words: Acute toxicity in Kunming mouse assessed as mortality at 500 mg/kg, po measured during first 4 hours and then each hour for next 24 hrs and at 8 hourly intervals for following 7 days post dose. The data set is classed as organism-based. Conditions: in vivo.

In brackets after ≈: the same amount, converted by molar mass. A value given as a limit tells only on which side of the number the result lay.

As for `O=c1nc(N2CCC3(CCN(Cc4ccc(F)cc4)C3)CC2)sc2c([N+](=O)[O-])cc(C(F)(F)F)cc12`, the time of peak concentration (Tmax) in [1] was found to be 1.08 h. Also, the CC50 at 72 h in data set [2] was determined as 811 µM. In addition, the half-life in [3] was 3.11 h. The molecule further showed a peak concentration (Cmax) in data set [4] of 1230 ng/mL. This molecule also displayed a solubility at 12 h in data set [5] of 1.12 µg/mL (≈ 2.14 µM). Besides, the mean residence time MRT in data set [6] stood at 4 h. The molecule further gave an area under the curve AUC(0-inf) in [7] of 6020 ng·h/mL. The molecule further registered an MIC90 in data set [8] of less than 0.035 µM.
`CC(C)(C)OC(=O)N1CC2(CCN(c3nc(=O)c4cc(C(F)(F)F)cc([N+](=O)[O-])c4s3)CC2)C1`: the MIC90 in [8] was found to be 1.92 µM (≈ 0.963 µg/mL).
Still for that read-out and setting: the same measure for `CCOC(=O)CN1CC2(CCN(c3nc(=O)c4cc(C(F)(F)F)cc([N+](=O)[O-])c4s3)CC2)C1`: 0.444 µM (≈ 0.216 µg/mL); for `O=C(CN1CCC2(CC1)CCN(c1nc(=O)c3cc(C(F)(F)F)cc([N+](=O)[O-])c3s1)CC2)NCc1ccccc1`: 6.42 µM (≈ 3.69 µg/mL).
Same read-out and setting: for `CCOC(=O)CN1CCC2(CC1)CCN(c1nc(=O)c3cc(C(F)(F)F)cc([N+](=O)[O-])c3s1)CC2` the value was 0.542 µM (≈ 0.279 µg/mL).
For the molecule `O=c1nc(N2CCC3(CCN(Cc4cccc(F)c4)CC3)CC2)sc2c([N+](=O)[O-])cc(C(F)(F)F)cc12`, the Tmax in [1] is 0.67 h. Besides, in [2], the CC50 at 72 h worked out at 1400 µM. Besides, the half-life in data set [3] was 3.53 h. Further, in [4], the concentration peaked (Cmax) at 901 ng/mL. Moreover, the solubility at 12 h in data set [5] was 1.13 µg/mL (≈ 2.11 µM). Besides, the Activity entry in the data set on Mus musculus is “Non-Toxic”. In data set [6], this molecule yielded an MRT of 4.83 h. In [7], this molecule gave an AUC(0-inf) of 4870 ng·h/mL. In addition, in data set [8], the MIC90 came out at 0.054 µM (≈ 0.029 µg/mL).
In turn, `COc1ccccc1CN1CCC2(CCN(c3nc(=O)c4cc(C(F)(F)F)cc([N+](=O)[O-])c4s3)CC2)C1` showed an MIC90 in data set [8] of 1.68 µM (≈ 0.896 µg/mL).
In data set [8], `CCN(CC)C(=O)CN1CCC2(CC1)CCN(c1nc(=O)c3cc(C(F)(F)F)cc([N+](=O)[O-])c3s1)CC2` had an MIC90 of 6.32 µM (≈ 3.42 µg/mL).
Same read-out and setting: the same measure for `O=C(CN1CCC2(CC1)CCN(c1nc(=O)c3cc(C(F)(F)F)cc([N+](=O)[O-])c3s1)CC2)OCc1ccccc1`: 0.352 µM (≈ 0.203 µg/mL).
For `O=c1nc(N2CCC3(CCN(Cc4ccc(Br)cc4)CC3)CC2)sc2c([N+](=O)[O-])cc(C(F)(F)F)cc12`, in [1], the time of peak concentration (Tmax) stood at 1 h. Besides, the CC50 at 72 h in data set [2] came out at 1680 µM. Besides, in data set [3], the half-life was 10.7 h. Further, the highest concentration (Cmax) in data set [4] turned out to be 1680 ng/mL. Moreover, in [5], the solubility at 12 h was 1.17 µg/mL (≈ 1.96 µM). Moreover, the Activity entry in the data set with Mus musculus is listed as “Non-Toxic”. In data set [6], this molecule registered a mean residence time MRT of 15.9 h. In data set [7], the AUC(0-inf) was determined as 24600 ng·h/mL. In data set [8], the MIC90 stood at 0.057 µM (≈ 0.0341 µg/mL).
Take `COc1ccc(CN2CCC3(CCN(c4nc(=O)c5cc(C(F)(F)F)cc([N+](=O)[O-])c5s4)CC3)C2)cc1`: the CC50 at 72 h in data set [2] worked out at 86.2 µM. Moreover, the concentration in solution in data set [5] (solubility at 12 h) came to 1.4 µg/mL (≈ 2.62 µM). For the same molecule, in [8], the MIC90 stood at 0.112 µM (≈ 0.0599 µg/mL).
In turn, `O=c1nc(N2CCC3(CCN(CC4CCCCC4)C3)CC2)sc2c([N+](=O)[O-])cc(C(F)(F)F)cc12` showed an MIC90 in data set [8] of 0.22 µM (≈ 0.112 µg/mL).
The same measure, in the same setting: the same measure for `CC(C)(C)OC(=O)N1CCC2(CCN(c3nc(=O)c4cc(C(F)(F)F)cc([N+](=O)[O-])c4s3)CC2)C1`: 3.26 µM (≈ 1.68 µg/mL); for `COc1ccc(CN2CCC3(CC2)CCN(c2nc(=O)c4cc(C(F)(F)F)cc([N+](=O)[O-])c4s2)CC3)cc1`: 1 µM (≈ 0.551 µg/mL).
Regarding `O=c1nc(N2CCC3(CCN(Cc4cc(F)cc(F)c4)CC3)CC2)sc2c([N+](=O)[O-])cc(C(F)(F)F)cc12`, the Tmax in data set [1] came to 0.5 h. For the same molecule, in data set [2], the CC50 at 72 h worked out at 1170 µM. In addition, the half-life in [3] was 4.68 h. In data set [4], this molecule registered a Cmax of 426 ng/mL. This molecule displayed a solubility at 12 h in [5] of 0.67 µg/mL (≈ 1.21 µM). Further, the Activity result in the data set on Mus musculus was “Non-Toxic”. In data set [6], this molecule yielded a mean residence time (MRT) of 5.8 h. The AUC(0-inf) in data set [7] is 2600 ng·h/mL. In data set [8], this molecule displayed an MIC90 of less than 0.035 µM.
As for `CC(C)(C)OC(=O)N1CCC2(CC1)CCN(c1nc(=O)c3cc(C(F)(F)F)cc([N+](=O)[O-])c3s1)CC2`, the MIC90 in data set [8] came out at 0.219 µM (≈ 0.116 µg/mL).
Still for that read-out and setting: for `CN1CCC2(CC1)CCN(c1nc(=O)c3cc(C(F)(F)F)cc([N+](=O)[O-])c3s1)CC2` the value was 33.5 µM (≈ 14.8 µg/mL); for `O=c1nc(N2CCC3(CCN(CC4CCCCC4)CC3)CC2)sc2c([N+](=O)[O-])cc(C(F)(F)F)cc12`, 0.944 µM (≈ 0.495 µg/mL).
Regarding `O=c1nc(N2CCC3(CCN(Cc4ccc(C(F)(F)F)cc4)CC3)CC2)sc2c([N+](=O)[O-])cc(C(F)(F)F)cc12`, in [1], the time to peak (Tmax) came to 1.33 h. Also, in [2], the CC50 at 72 h turned out to be 145 µM. For the same molecule, the half-life in data set [3] is 3.59 h. This molecule displayed a Cmax in data set [4] of 2700 ng/mL. In [5], this molecule gave a solubility at 12 h of 1.24 µg/mL (≈ 2.11 µM). Besides, the Activity entry in the data set on Mus musculus is recorded as “Non-Toxic”. The MRT in [6] is 6.07 h. Also, the area under the curve AUC(0-inf) in data set [7] is 28700 ng·h/mL. This molecule showed an MIC90 in [8] of less than 0.035 µM.
Take `COc1ccc(CN2CC3(CCN(c4nc(=O)c5cc(C(F)(F)F)cc([N+](=O)[O-])c5s4)CC3)C2)cc1`: in data set [2], the half-maximal cytotoxic concentration (CC50) at 72 h was 78.9 µM. Further, in data set [5], the solubility at 12 h is 1.2 µg/mL (≈ 2.31 µM). Also, the MIC90 in data set [8] was 0.113 µM (≈ 0.0588 µg/mL).
For the molecule `COc1ccc(C(=O)N2CCC3(CC2)CCN(c2nc(=O)c4cc(C(F)(F)F)cc([N+](=O)[O-])c4s2)CC3)cc1`, the MIC90 in [8] came out at 26.6 µM (≈ 15 µg/mL).
On to `O=c1nc(N2CCC3(CCN(Cc4ccccc4)C3)CC2)sc2c([N+](=O)[O-])cc(C(F)(F)F)cc12`, for which the CC50 at 72 h in data set [2] came out at 289 µM. Moreover, the concentration in solution in data set [5] (solubility at 12 h) was 1.56 µg/mL (≈ 3.09 µM). In [8], this molecule yielded an MIC90 of 0.06 µM (≈ 0.0303 µg/mL).
The molecule `O=c1nc(N2CCC3(CCN(Cc4ccccc4)CC3)CC2)sc2c([N+](=O)[O-])cc(C(F)(F)F)cc12` displayed an MIC90 in [8] of 0.847 µM (≈ 0.439 µg/mL).
Still for that read-out and setting: the same measure for `O=c1nc(N2CCC3(CCN(Cc4ccc(F)cc4)CC3)CC2)sc2c([N+](=O)[O-])cc(C(F)(F)F)cc12`: 0.21 µM (≈ 0.113 µg/mL); for `O=c1nc(N2CCC3(CC2)CN(CC2CCCCC2)C3)sc2c([N+](=O)[O-])cc(C(F)(F)F)cc12`: 0.468 µM (≈ 0.232 µg/mL).
Same read-out and setting: the same measure for `COc1cc(CN2CCC3(CC2)CCN(c2nc(=O)c4cc(C(F)(F)F)cc([N+](=O)[O-])c4s2)CC3)cc(OC)c1`: 0.825 µM (≈ 0.477 µg/mL).
On to `CCOC(=O)CN1CCC2(CCN(c3nc(=O)c4cc(C(F)(F)F)cc([N+](=O)[O-])c4s3)CC2)C1`, for which the time of peak concentration (Tmax) in data set [1] was 0.67 h. Besides, the CC50 at 72 h in data set [2] stood at 266 µM. Further, in data set [3], the half-life is 3.46 h. The molecule further came in with a Cmax in data set [4] of 17.6 ng/mL. The molecule also came in with a solubility at 12 h in data set [5] of 2.04 µg/mL (≈ 4.08 µM). Further, the Activity entry in the data set with Mus musculus is on record as “Non-Toxic”. The MRT in data set [6] worked out at 5.2 h. In addition, in data set [7], the AUC(0-inf) was 41.8 ng·h/mL. Further, the MIC90 in [8] was 0.062 µM (≈ 0.031 µg/mL).
`NNC(=O)c1ccncc1` [ISONIAZID] yielded an MIC90 in data set [8] of 0.284 µM (≈ 0.0389 µg/mL).
As for `O=c1nc(N2CCN(CC3CCCCC3)CC2)sc2c([N+](=O)[O-])cc(C(F)(F)F)cc12` [MACOZINONE], the Tmax in [1] was 0.83 h. The half-maximal cytotoxic concentration (CC50) at 72 h in data set [2] stood at 1400 µM. In addition, the half-life in data set [3] was 2.87 h. The molecule further returned a Cmax in data set [4] of 1300 ng/mL. Further, in data set [5], the concentration in solution (solubility at 12 h) was 0.9 µg/mL (≈ 1.97 µM). The MRT in data set [6] amounted to 3.73 h. Besides, in [7], the AUC(0-inf) came out at 5480 ng·h/mL. In data set [8], this molecule showed an MIC90 of less than 0.035 µM.
The molecule `CO[C@H]1/C=C/O[C@@]2(C)Oc3c(C)c(O)c4c(O)c(c(/C=N/N5CCN(C)CC5)c(O)c4c3C2=O)NC(=O)/C(C)=C\C=C\[C@H](C)[C@H](O)[C@@H](C)[C@@H](O)[C@@H](C)[C@H](OC(C)=O)[C@@H]1C` [RIFAMPIN] returned an MIC90 in [8] of 0.092 µM (≈ 0.0757 µg/mL).

As usually defined, the Tmax is the time from dosing to the highest level. As usually defined, the CC50 is the concentration at which the toxic effect on the cells reaches its halfway point. For orientation: Cmax means the highest concentration seen after dosing. Broadly, the solubility is the dissolved amount per volume that the medium holds. A word on the MRT: it is a mean duration of stay, worked out from the concentration-time curve. Broadly, the AUC(0-inf) is total exposure, with the tail of the curve extrapolated. In general, MIC90 refers to the lowest concentration that inhibits either 90% of growth or 90% of the strains tested, depending on the study.
